Source: patent US8404708B2, “Dual NK1/NK3 receptor antagonists” (Hoffmann-La Roche Inc., priority 2004, dated 2013)

Tests used:
[1] = target: T1, Recombinant human NK3 (hNK3) receptor (Homo sapiens, UniProt P29371); assay: NK3 receptor binding, [3H]SR142801 displacement, membrane preparations; conditions: second value of the cell NK1/NK3; for Ki: read-out: pKi NK3 (converted)
T1 construct: expressed in transfected cells
T1 sequence (P29371 1-465): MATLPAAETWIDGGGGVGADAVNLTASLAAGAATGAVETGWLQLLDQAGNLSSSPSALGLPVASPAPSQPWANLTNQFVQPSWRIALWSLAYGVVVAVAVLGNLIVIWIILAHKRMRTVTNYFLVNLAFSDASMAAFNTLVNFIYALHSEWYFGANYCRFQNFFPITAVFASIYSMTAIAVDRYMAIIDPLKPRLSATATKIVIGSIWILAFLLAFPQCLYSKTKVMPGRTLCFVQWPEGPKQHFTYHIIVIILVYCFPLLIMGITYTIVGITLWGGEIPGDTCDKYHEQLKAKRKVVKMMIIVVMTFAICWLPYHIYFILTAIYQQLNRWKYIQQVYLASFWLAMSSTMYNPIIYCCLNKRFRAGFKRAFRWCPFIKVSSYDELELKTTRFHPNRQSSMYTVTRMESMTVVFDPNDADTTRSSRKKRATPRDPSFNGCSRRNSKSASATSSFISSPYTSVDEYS
Procedure, shortened: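 Room-temperature, 90-min filtration binding assay using about 2.5 μg recombinant receptor membranes per well; separation on polyethyleneimine-treated glass-fibre (GF/C) filters and liquid scintillation read-out, with 10 μM SB222200 for nonspecific binding.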

human NK1 receptor = human NK1 receptor (Homo sapiens, UniProt P25103); assay: NK1 receptor binding, [3H]substance P displacement, CHO cell membranes; conditions: first value of the cell NK1/NK3; read-out: pKi NK1 (converted)
Chain of human NK1 receptor (P25103 whole entry): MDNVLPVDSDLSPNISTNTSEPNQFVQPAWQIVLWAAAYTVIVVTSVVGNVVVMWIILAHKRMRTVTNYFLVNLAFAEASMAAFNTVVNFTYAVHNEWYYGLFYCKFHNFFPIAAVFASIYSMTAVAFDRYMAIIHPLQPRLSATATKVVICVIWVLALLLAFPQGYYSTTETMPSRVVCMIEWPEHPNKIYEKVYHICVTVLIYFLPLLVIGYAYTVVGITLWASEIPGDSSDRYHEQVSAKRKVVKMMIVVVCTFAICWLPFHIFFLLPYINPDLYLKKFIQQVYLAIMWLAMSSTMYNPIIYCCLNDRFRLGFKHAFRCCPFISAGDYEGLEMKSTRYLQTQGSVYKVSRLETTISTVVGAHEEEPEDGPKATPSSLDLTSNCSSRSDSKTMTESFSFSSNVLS

| SMILES | Ki [1] [nM] | Ki (human NK1 receptor) [nM] | pKi NK3 [1] |
| --- | --- | --- | --- |
| COc1ccccc1-c1cc(N2CCC[C@H]2CO)ncc1N(C)C(=O)C(C)(C)c1cc(C(F)(F)F)cc(C(F)(F)F)c1 [Example 280, (S)-2-(3,5-Bis-trifluoromethyl-phenyl)-N-[6-(2-hydroxymethyl-pyrrolidin-1-yl)-4-(2-methoxy-phenyl)-pyridin-3-yl]-N-methyl-isobutyramide] | 1.86 | 1.82 | – |
| CN(C(=O)C(C)(C)c1cc(C(F)(F)F)cc(C(F)(F)F)c1)c1cnc(N2CCC[C@H]2CO)cc1-c1ccccc1Br [Example 281, (S)-2-(3,5-Bis-trifluoromethyl-phenyl)-N-[4-(2-bromo-phenyl)-6-(2-hydroxymethyl-pyrrolidin-1-yl)-pyridin-3-yl]-N-methyl-isobutyramide] | 1.82 | 3.47 | – |
| CN(C(=O)C(C)(C)c1cc(C(F)(F)F)cc(C(F)(F)F)c1)c1cnc(N2CCC[C@H]2CO)cc1-c1ccccc1F [Example 282, (S)-2-(3,5-Bis-trifluoromethyl-phenyl)-N-[4-(2-fluoro-phenyl)-6-(2-hydroxymethyl-pyrrolidin-1-yl)-pyridin-3-yl]-N-methyl-isobutyramide] | 2.24 | 3.09 | – |
| CN(C(=O)C(C)(C)c1cc(C(F)(F)F)cc(C(F)(F)F)c1)c1cnc(N2CCC[C@H]2CO)cc1-c1ccc(Cl)cc1Cl [Example 283, (S)-2-(3,5-Bis-trifluoromethyl-phenyl)-N-[4-(2,4-dichloro-phenyl)-6-(2-hydroxymethyl-pyrrolidin-1-yl)-pyridin-3-yl]-N-methyl-isobutyramide] | 1.48 | 2.82 | – |
| CN(C(=O)C(C)(C)c1cc(C(F)(F)F)cc(C(F)(F)F)c1)c1cnc(N2CCC[C@H]2CO)cc1-c1cc(Cl)ccc1Cl [Example 284, (S)-2-(3,5-Bis-trifluoromethyl-phenyl)-N-[4-(2,5-dichloro-phenyl)-6-(2-hydroxymethyl-pyrrolidin-1-yl)-pyridin-3-yl]-N-methyl-isobutyramide] | 1.45 | 1.48 | – |
| CN(C(=O)C(C)(C)c1cc(C(F)(F)F)cc(C(F)(F)F)c1)c1cnc(N2CCC[C@H]2CO)cc1-c1cccc(Cl)c1Cl [Example 285, (S)-2-(3,5-Bis-trifluoromethyl-phenyl)-N-[4-(2,3-dichloro-phenyl)-6-(2-hydroxymethyl-pyrrolidin-1-yl)-pyridin-3-yl]-N-methyl-isobutyramide] | 1.86 | 1.58 | – |
| CN(C(=O)C(C)(C)c1cc(C(F)(F)F)cc(C(F)(F)F)c1)c1cnc(N2CCC[C@H]2CO)cc1-c1ccc(Cl)c(Cl)c1 [Example 286, (S)-2-(3,5-Bis-trifluoromethyl-phenyl)-N-[4-(3,4-dichloro-phenyl)-6-(2-hydroxymethyl-pyrrolidin-1-yl)-pyridin-3-yl]-N-methyl-isobutyramide] | 3.72 | 1.35 | – |
| CN(C(=O)C(C)(C)c1cc(C(F)(F)F)cc(C(F)(F)F)c1)c1cnc(N2CCC[C@H]2CO)cc1-c1ccc(Cl)cc1 [Example 287, (S)-2-(3,5-Bis-trifluoromethyl-phenyl)-N-[4-(4-chloro-phenyl)-6-(2-hydroxymethyl-pyrrolidin-1-yl)-pyridin-3-yl]-N-methyl-isobutyramide] | 7.41 | 6.31 | – |
| CN(C(=O)C(C)(C)c1cc(C(F)(F)F)cc(C(F)(F)F)c1)c1cnc(N2CCC[C@H]2CO)cc1-c1ccc(F)cc1 [Example 288, (S)-2-(3,5-Bis-trifluoromethyl-phenyl)-N-[4-(4-fluoro-phenyl)-6-(2-hydroxymethyl-pyrrolidin-1-yl)-pyridin-3-yl]-N-methyl-isobutyramide] | 2.51 | 2.63 | – |
| CN(C(=O)C(C)(C)c1cc(C(F)(F)F)cc(C(F)(F)F)c1)c1cnc(N2CCC[C@H]2CO)cc1-c1ccccc1 [Example 289, (S)-2-(3,5-Bis-trifluoromethyl-phenyl)-N-[6-(2-hydroxymethyl-pyrrolidin-1-yl)-4-phenyl-pyridin-3-yl]-N-methyl-isobutyramide] | 5.01 | 3.02 | – |
| Cc1ncccc1-c1cc(N2CCC[C@H]2CO)ncc1N(C)C(=O)C(C)(C)c1cc(C(F)(F)F)cc(C(F)(F)F)c1 [Example 290, (S)-2-(3,5-Bis-trifluoromethyl-phenyl)-N-[6′-(2-hydroxymethyl-pyrrolidin-1-yl)-2-methyl-[3,4′]bipyridinyl-3′-yl]-N-methyl-isobutyramide] | 1.78 | 1.45 | – |
| Cc1ncccc1-c1cc(N(CCO)CCO)ncc1N(C)C(=O)C(C)(C)c1cc(C(F)(F)F)cc(C(F)(F)F)c1 [Example 291, N-{6′-[Bis-(2-hydroxy-ethyl)-amino]-2-methyl-[3,4′]bipyridinyl-3′-yl}-2-(3,5-bis-trifluoromethyl-phenyl)-N-methyl-isobutyramide] | 7.76 | 3.31 | – |
| Cc1ccncc1-c1cc(N2CCC[C@H]2CO)ncc1N(C)C(=O)C(C)(C)c1cc(C(F)(F)F)cc(C(F)(F)F)c1 [Example 292, (S)-2-(3,5-Bis-trifluoromethyl-phenyl)-N-[6′-(2-hydroxymethyl-pyrrolidin-1-yl)-4-methyl-[3,4′]bipyridinyl-3′-yl]-N-methyl-isobutyramide] | 0.776 | 3.63 | – |
| Cc1ccncc1-c1cc(N(CCO)CCO)ncc1N(C)C(=O)C(C)(C)c1cc(C(F)(F)F)cc(C(F)(F)F)c1 [Example 293, N-{6′-[Bis-(2-hydroxy-ethyl)-amino]-4-methyl-[3,4′]bipyridinyl-3′-yl}-2-(3,5-bis-trifluoromethyl-phenyl)-N-methyl-isobutyramide] | 1.62 | 3.8 | – |
| Cc1ccncc1-c1cc(N(C)CCO)ncc1N(C)C(=O)C(C)(C)c1cc(C(F)(F)F)cc(C(F)(F)F)c1 [Example 294, 2-(3,5-Bis-trifluoromethyl-phenyl)-N-{6′-[(2-hydroxy-ethyl)-methyl-amino]-4-methyl-[3,4′]bipyridinyl-3′-yl}-N-methyl-isobutyramide] | 4.27 | 5.13 | – |
| Cc1ccccc1-c1cc(N2CC(=O)C[C@H]2CO)ncc1N(C)C(=O)C(C)(C)c1cc(C(F)(F)F)cc(C(F)(F)F)c1 [Example 295, (S)-2-(3,5-Bis-trifluoromethyl-phenyl)-N-[6-(2-hydroxymethyl-4-oxo-pyrrolidin-1-yl)-4-o-tolyl-pyridin-3-yl]-N-methyl-isobutyramide] | 1.66 | 1.55 | – |
| Cc1cc(F)ccc1-c1cc(N2CC(=O)C[C@H]2CO)ncc1N(C)C(=O)C(C)(C)c1cc(C(F)(F)F)cc(C(F)(F)F)c1 [Example 296, (S)-2-(3,5-Bis-trifluoromethyl-phenyl)-N-[4-(4-fluoro-2-methyl-phenyl)-6-(2-hydroxymethyl-4-oxo-pyrrolidin-1-yl)-pyridin-3-yl]-N-methyl-isobutyramide] | 1.74 | 2.51 | – |
| Cc1ccccc1-c1cc(N2C[C@@H](F)C[C@H]2CO)ncc1N(C)C(=O)C(C)(C)c1cc(C(F)(F)F)cc(C(F)(F)F)c1 [Example 297, (2S,4S)-2-(3,5-Bis-trifluoromethyl-phenyl)-N-[6-(4-fluoro-2-hydroxymethyl-pyrrolidin-1-yl)-4-o-tolyl-pyridin-3-yl]-N-methyl-isobutyramide] | 1.32 | 2.88 | – |
| Cc1cc(F)ccc1-c1cc(N2C[C@@H](F)C[C@H]2CO)ncc1N(C)C(=O)C(C)(C)c1cc(C(F)(F)F)cc(C(F)(F)F)c1 [Example 298, (2S,4S)-2-(3,5-Bis-trifluoromethyl-phenyl)-N-[6-(4-fluoro-2-hydroxymethyl-pyrrolidin-1-yl)-4-(4-fluoro-2-methyl-phenyl)-pyridin-3-yl]-N-methyl-isobutyramide] | – | 1.55 | 9.15 |
| Cc1ccccc1-c1cc(N2CC(F)(F)C[C@H]2CO)ncc1N(C)C(=O)C(C)(C)c1cc(C(F)(F)F)cc(C(F)(F)F)c1 [Example 299, (S)-2-(3,5-Bis-trifluoromethyl-phenyl)-N-[6-(4,4-difluoro-2-hydroxymethyl-pyrrolidin-1-yl)-4-o-tolyl-pyridin-3-yl]-N-methyl-isobutyramide] | 1.07 | 2.57 | – |
| Cc1cc(F)ccc1-c1cc(N2CC(F)(F)C[C@H]2CO)ncc1N(C)C(=O)C(C)(C)c1cc(C(F)(F)F)cc(C(F)(F)F)c1 [Example 300, (S)-2-(3,5-Bis-trifluoromethyl-phenyl)-N-[6-(4,4-difluoro-2-hydroxymethyl-pyrrolidin-1-yl)-4-(4-fluoro-2-methyl-phenyl)-pyridin-3-yl]-N-methyl-isobutyramide] | 0.49 | 0.955 | – |
| Cc1ccccc1-c1cc(N2C[C@H](F)C[C@H]2CO)ncc1N(C)C(=O)C(C)(C)c1cc(C(F)(F)F)cc(C(F)(F)F)c1 [Example 301, (2S,4R)-2-(3,5-Bis-trifluoromethyl-phenyl)-N-[6-(4-fluoro-2-hydroxymethyl-pyrrolidin-1-yl)-4-o-tolyl-pyridin-3-yl]-N-methyl-isobutyramide] | 2.29 | 2.14 | – |
